# Assay results reported in US20200046658A1, “PHARMACEUTICAL COMPOSITION FOR INDUCING EXERCISE MIMETIC EFFECT” (CELLVERTICS CO., LTD., priority 2015, published 2020).
# Counter-ions that a name gives are not always drawn. Marks after values point to notes of the source that are not given here.
# Experiments:
# [1] = test system: mouse skeletal muscle cells (C2C12); assay: Western blot of p-AMPK, PPAR-δ and PGC-1α in differentiating C2C12 cells; format: cell-based; conditions: versus untreated control
# Experimental: C2C12 cells (mouse skeletal cell line) were seeded onto a 6-well plate in a CO2 incubator at 37° C. and cultured in a DMEM medium containing 10% FBS and 1% antibiotics to about 80% confluency. After replacing the medium with one containing 1% FBS, differentiation was conducted for 3 days. Then, after replacing the medium with one containing 1% FBS and then treating with a drug, experiment was conducted 24 hours later.
# The protein content of the extract was measured by the Bradford's method. The extracted proteins (20-30 μg) were loaded on a 10% SDS-PAGE gel. Western blot assay was conducted using primary antibodies for AMPKα, phosphorylated AMPKα, PPARδ and PGC-1α. Images were obtained manually using the Kodak GBX developer and a fixative reagent.
# Specifically, after treating differentiating C2C12 cells with the compounds at different concentrations (10 μM, 30 μM, 50 μM), the expression of activated (phosphorylated) AMPK (p-AMPK), PPAR-δ and PGC-1α was investigated by western blot.
# [2] = Body weight, cardiac weight and abdominal fat of SHR; format: in vivo, rat; conditions: 8 weeks old, drug in drinking water for 4 weeks (midodrine 0.2 mg/kg/day, atenolol 1 mg/kg/day), mean±SD
# Experimental: (§1) The animals of the group I were anesthetized at 4 weeks of age while the rats of other groups were anesthetized at 8 weeks of age after being treated for 4 weeks. […] The recovered organs were kept in a refrigerator at −80° C. or in 10% formalin for fixation.
# Body weight and abdominal fat were measured and compared for the midodrine-administered rat (II), atenolol-administered rat (III) and 8-week-old unadministered hypertension control group rat (IV).
# [3] = test system: spontaneously hypertensive rat (SHR); assay: Serum inflammatory markers, reactive oxygen species and adiponectin in SHR; format: in vivo; conditions: 8 weeks old, drug for 4 weeks, mean±SD; for ROS: blood
# Experimental: as §1
# The concentration of total cholesterol, HDL cholesterol, LDL cholesterol and triglyceride was measured by enzymatic colorimetry (Roche Diagnostics GmbH; Mannheim, Germany). Also, serum assays for inflammatory markers were conducted using a […] cytokine Milliplex panel (Millipore Corporation, Billerica, Mass., USA) as recommended for cytokines (interleukin (IL)-1α, IL-1β, IL-6, IL-4, IL-10 and TNF-α). Acquisition was performed on a Luminex 100 platform and data analysis was carried out using the Multiplex analyzer. Reactive oxygen species and adiponectin were measured using the ELISA kit (MBS815494, Mybiosource). The measured blood adiponectin level was calibrated for the visceral fat weight (g).
# [4] = test system: aorta and cardiac muscle tissue; assay: mRNA expression of AT1R, eNOS, SOD, gp91-phox, TNFα in aorta and cardiac muscle of SHR; format: in vivo, rat
# Experimental: as §1
# Full-length RNA was extracted using the TriZol reagent according to the manufacturer's instructions. Complementary DNA was synthesized from the full-length RNA using the Power cDNA Synthesis kit and polymerase chain reaction was conducted for angiotensin II type I receptor (AT1R), endothelial nitric oxide synthase (eNOS), superoxide dismutase (SOD), gp91-phox (NADPH), tumor necrosis factor-alpha (TNF-α) and GAPDH using the PCR Premix kit.
# The mRNA expression level of the genes related with vasoconstriction, nitric oxide production, oxidative stress and inflammation in the aorta and cardiac muscle tissue was investigated by […] for the 4-week-old basal rat (I), midodrine-administered rat (II), atenolol-administered rat (III) and 8-week-old unadministered control group rat (IV).
# [5] = test system: spontaneously hypertensive rat (SHR); assay: ATP level in tissues of SHR by ELISA; format: in vivo; conditions: versus control group SHRs, FIG. 5
# Experimental: 0.02 g of liver tissue was homogenized in 500 μL of PBS. The homogenate was centrifuged at 1500×g (or 5000 rpm) for 15 minutes and the supernatant was subjected to measurement. After pouring 100 μL of a reference material or sample to an adequate well of an antibody-precoated microtiter plate, 10 μL of the residual solution was added to the sample. After adding 50 μL of a conjugate to each well and mixing, the plate was covered with a lid and incubated at 37° C. for 1 hour. After adding 50 μL of substrate A or B to each well, incubation was conducted at 37° C. for 15 minutes. After adding a stop solution to each well, optical density was measured at 450 nm using a microplate reader.
# The level of ATP in the heart, skeletal muscle and liver was measured by ELISA for the 4-week-old basal rat (I), midodrine-administered rat (II), atenolol-administered rat (III) and 8-week-old unadministered control group rat (IV).
# [6] = test system: spontaneously hypertensive rat (SHR); assay: Echocardiographic examination of spontaneously hypertensive rats; format: in vivo
# From the text: Spontaneously hypertensive rat (SHR) is an animal model in which hereditary hypertension is expressed. It is known that the hypertension which is the most similar to human primary hypertension is expressed. In SHR, blood pressure begins to increase around 4-6 weeks of age and hypertension is developed seriously at 8-12 weeks. SHR is widely used in studies as an animal mode of primary hypertension, especially hypertension with cardiac lesions, because it is frequently accompanied damage to the hypertensive target organs, such as cardiac hypertrophy, heart failure, renal disorder, etc.
# 3-week-old spontaneously hypertensive rats (SHRs) were kept under a standardized condition (21° C., 41-62% humidity) with periodic light/dark (10/14 hour) cycles and were freely allowed to access water and laboratory feed. All the animal experiments were approved by the Korea University Institutional Animal Care and Use Committee (KUIACUC-2012-100) and were in accordance with the Guideline for the Care and Use of Laboratory Animals.
# After anesthetization by intramuscular injection of Zoletil (8 mg/kg) and xylazine (2 mg/kg), the rats were laid on their left sides and M-mode echo images were obtained. The examination was conducted using Vivid 7 (GE Medical Systems, Milwaukee, Wis., USA) equipped with a 12-MHz transducer. After acquiring optimized 2-dimensional short-axis images for the left ventricle at the papillary muscle level, M-mode tracing and echocardiographic images were recorded at a speed of 100 mm/s.
# [7] = C2C12, over 10 μM, 30 μM, 50 μM
# [8] = SHR, 8 weeks old, drug in drinking water for 4 weeks (midodrine 0.2 mg/kg/day, atenolol 1 mg/kg/day), mean±SD
smiles,measurement,setting,value
"CCc1ccc(OC)c(C(O)CNC(=O)CN)c1 (stereo not drawn) [Compound 9, 2-amino-N-(2-(5-ethyl-2-methoxyphenyl)-2-hydroxyethyl)acetamide hydrochloride]",expression of PGC-1α,"[1]; C2C12, 30 μM",significantly increased
same,expression of p-AMPK,"[1]; C2C12, 30 μM",significantly increased
same,expression of PGC-1α,"[1]; C2C12, 50 μM",significantly increased
same,expression of p-AMPK,"[1]; C2C12, 50 μM",significantly increased
same,expression of PGC-1α,[1]; [7],overall increase
same,expression of PPAR-δ,[1]; [7],overall increase
same,expression of p-AMPK,[1]; [7],overall increase
"COc1cc(OC)cc(C(O)CNC(=O)CN)c1 (stereo not drawn) [Compound 8, 2-amino-N-(2-(3,5-dimethoxyphenyl)-2-hydroxyethyl)acetamide hydrochloride]",expression of PGC-1α,"[1]; C2C12, 50 μM",significantly increased
same,expression of p-AMPK,"[1]; C2C12, 50 μM",significantly increased
same,expression of PGC-1α,[1]; [7],overall increase
same,expression of PPAR-δ,[1]; [7],overall increase
same,expression of p-AMPK,[1]; [7],overall increase
"COc1ccc(OC)c(C(O)CNC(=O)C(N)Cc2ccccc2)c1 (stereo not drawn) [Compound 5, 2-amino-N-(2-(2,5-dimethoxyphenyl)-2-hydroxyethyl)-3-phenylpropanamide]",expression of PPAR-δ,"[1]; C2C12, 30 μM",significantly increased
same,expression of p-AMPK,"[1]; C2C12, 30 μM",significantly increased
CC(C)NCC(O)COc1ccc(CC(N)=O)cc1 (stereo not drawn) [Atenolol],Body weight,[2],296.46 ± 16.73^b g
same,Cardiac weight,[2],1.47 ± 0.15^a g
same,Body weight,[2]; listed as atenolol,highest
same,Adiponectin,[3]; blood level calibrated for the visceral fat weight (g),6136.5 ± 574.7^bc ng/ml/g
same,ROS,[3],223.1 ± 45.4^a ng/ml
same,ROS,[3]; listed as atenolol,lower
same,IL-1α,[3]; serum,5.51 ± 2.64^c μg/ml
same,IL-1β,[3]; serum,2.02 ± 1.53^a μg/ml
same,IL-4,[3]; serum,2.94 ± 0.90^b μg/ml
same,IL-6,[3]; serum,5.62 ± 1.42^a μg/ml
same,IL-10,[3]; serum,15.33 ± 2.79^b μg/ml
same,TNF-α,[3]; serum,8.35 ± 1.36^b μg/ml
same,IL-1α,"[3]; serum, listed as atenolol",significantly increased
same,IL-4,"[3]; serum, listed as atenolol",slightly higher
same,IL-10,"[3]; serum, listed as atenolol",slightly higher
same,TNF-α,"[3]; serum, listed as atenolol",significantly increased
same,TNFα expression in the aorta,"[4]; among groups I-IV, FIG. 3A",moderate
same,expression of angiotensin II AT1R mRNA in the cardiac muscle,"[4]; among groups I-IV, FIG. 3B",moderate
same,expression of angiotensin II AT1R mRNA in the aorta,"[4]; versus control groups I and IV, FIG. 3A",lower
same,ATP level in heart tissue,[5],higher
same,left ventricular performance,"[6]; 8-week-old SHR, versus unadministered control (group IV)",higher
same,Diastolic left ventricular diaphragm,[6]; [8],1.50 ± 0.13^a mm
same,Diastolic left ventricular inner size,[6]; [8],6.33 ± 0.35^a mm
same,Diastolic left ventricular wall,[6]; [8],1.67 ± 0.16 mm
same,Left ventricular ejection fraction,[6]; [8],82.00 ± 5.31^a %
same,Left ventricular fractional shortening,[6]; [8],45.70 ± 5.82^a %
same,Left ventricular mass according to ASE,[6]; [8],1.10 ± 0.07^a g
same,Systolic left ventricular inner size,[6]; [8],3.43 ± 0.28^a mm
"NCC(=O)NCC(O)c1ccccc1 (stereo not drawn) [Compound 10, 2-amino-N-(2-hydroxy-2-phenylethyl)acetamide hydrochloride]",expression of PPAR-δ,"[1]; C2C12, 10 μM",significantly increased
same,expression of p-AMPK,"[1]; C2C12, 30 μM",significantly increased
same,expression of PPAR-δ,"[1]; C2C12, 50 μM",significantly increased
same,expression of p-AMPK,"[1]; C2C12, 50 μM",significantly increased
"COc1ccc(OC)c(C(O)CNC(=O)C(C)N)c1 (stereo not drawn) [Compound 7, 2-amino-N-(2-(2,5-dimethoxyphenyl)-2-hydroxyethyl)propanamide]",expression of p-AMPK,"[1]; C2C12, 10 μM",significant increase
same,expression of PPAR-δ,"[1]; C2C12, 30 μM",significant increase
same,expression of p-AMPK,"[1]; C2C12, 50 μM",significant increase
same,expression of PPAR-δ,[1]; [7],concentration-dependent increase
same,expression of p-AMPK,[1]; [7],concentration-dependent increase
